For data set [1], the system named is P388 leukemia. Nature of the data set: In vivo effect against P388 leukemia in mice (TD50, ED50, T.I.). The settings on record: for T.I. (therapeutic index): calculated from TD50 and ED50. The text has this: (§1) The in vivo effect of the novel compounds of this invention against P388 leukemia as compared to vinblastine and vincristine, were compared by the following procedure.
(§2) P388 murine leukemia cells were obtained from Southern Research Institute, Birmingham, Ala., and were maintained by serial i.p. passage in C57BL/6 mice. Female (C57BL/6×DBA/2) F1 (BDF) mice of 6-8 weeks of age from Jackson Laboratories, Bar Harbor, Maine, received 1×10^6 P388 cells by i.p. inoculation on day 0. Compounds were dissolved in saline and administered i.p. to 10 tumor-bearing mice per dose level on days 0-4 and 7-9 using 5 to 10 log2 dilutions from a concentration known to be toxic. […] The therapeutic index (T.I.) for each compound was calculated by the formula: [formula]

Assay in data set [2]: as above
The settings on record: mouse, in vivo, ip.
Source text: as §1, §2

For a further data set, the system named is OM-1. Kind of data set: MTT cell count (ID50), human colon cancer cell line OM-1. In kind it is cell-based. To be noted: 144 h, read-out: ID50 OM-1. The procedure:
(§3) In the various assays set forth below the colorimetric determination of the number of cells was carried out by the following procedure using MTT.
(§4) 3-(4,5-dimethylthiazol-2-yl)-2,5-dipenyl tetrazolium bromide (MTT) was prepared as a 5 mg/ml stock solution in phosphate buffered saline, filtered through a 0.22 μm filter and stored for up to two weeks at 4° C. while protected from light. For use in the assay it was diluted to 1 mg/ml in a pH 7.2 solution of phenol-red-free RPMI 1640 tissue culture medium supplemented with 1 mM sodium pyruvate and 50 μg/ml gentamycin. The assay was done in flat bottomed 96-well microtiter plates. Culture medium was removed from the wells by inverting and blotting the plate, fifty μl of MTT solution was added to the cells in each well, and each plate was incubated at 37° C. in an atmosphere of 5% CO2 in air. After incubation, each plate was centrifuged for 5 minutes at 8000×g and excess MTT removed by inverting and blotting. Fifty μl of 95% ethanol was added to each well and the plate was shaken (speed 6.5 for 15 minutes) to solubilize the formazan in each well. The optical density of each well was measured using an automatic plate reader with a test wavelength of 570 nm and a reference wavelength of 630 nm.
(§5) The in vitro effects of the novel compounds as compared to vinblastine and vincristine on three human colon cancer cell lines and one non-transformedhuman cell line were determined by the following procedure.
(§6) The non-transformed human fibroblast cell line, WI-38 and two of the human colon cancer cell lines, COLO-320-DM and HT-29, were obtained from the American Type Culture Collection, Rockville, MD and the third human colon cancer cell line, OM-1, was supplied by E. I. du Pont de Nemours and Co., Inc., Glenholden, PA. Both OM-1 and COLO-320-DM cells were maintained by serial passage in RPMI 1640 tissue culture medium supplemented to 10% (v/v) with heat-inactivated FBS. HT-29 cells were similarly maintained in McCoys 5A tissue culture medium supplemented with 10% heat-inactivated FBS. COLO-320-DM cells were detached by gentle scraping while HT-29 and OM-1 cells were detached using 0.25% trypsin and 0.05% trypsin, 0.5 mM EDTA solutions respectively. All cultures were incubated at 37° C. in a humidified environment of 5% CO2 in air. Experiments were conducted in 96-well flat-bottomed plates. The initial cell seeds per well for each cell line were 4,000 for WI- 38; 2,000 for COLO-320-DM; 750 for HT-29; and 3,000 for OM-1, each in the appropriate tissue culture medium. Cells were plated 24 hours before test compound was added to allow cells to recover from the effects of physical scraping and trypsinization. Varying log10 dilutions of drug were added to triplicate sets of wells and cultures were incubated for 6 days at 37° in a humidified atmosphere of 5% CO2 in air. The number of cells per well at the end of the experiment was determined colorimetrically by the reduction of MTT as described above and the results for each compounds shown in Table II. For purposes of comparison, the concentration of each test compound required to reduce the final cell number to one-half of the number in drug-free control cultures (ID50) is shown in Table II.

The test system of data set [3] is P388 multiple-drug resistant cells. Nature of the data set: cells. The settings on record: for Fold-resistance: ID50 resistant cell line divided by ID50 wildtype cell line, 7200 min; for IC50: Mus musculus, P388, 120 h, read-out: ID50 P3/88/resist. Format: cell-based, murine. The procedure: as §3, §4
(§7) The differential in vitro activity of the above compounds as compared to vincristine and vinblastine with regard to P388 wild-type and P388 multiple-drug resistant leukemia was carried out by the following procedure.
(§8) Tissue culture-adapted lines of the P388 wild-type and P388 multiple-drug resistant cells (principally resistant to adriamycin) were obtained from the American Type Culture Collection, Rockville, MD. Experiments were conducted in 96-well microtiter plates with 300 cells from either line seeded in a volume of 200 μl of tissue culture medium (RPMI 1640 supplemented to 10% (v/v) with heat-inactivated fetal bovine serum (FBS) and to […] with 1-glutamine). Cells and varying log^10 dilutions of test compound were added to triplicate sets of wells on the same day and cultures were incubated for 5 days at 37° C. in a humidified atmosphere of 5% CO2 in air. The number of cells per well at the end of the experiment was determined colorimetrically by the reduction of MTT as described above.

The test system of the next data set is HT-29. Kind of data set: MTT cell count (ID50), human colon cancer cell line HT-29. Format: cell-based. To be noted: HT-29, 144 h, read-out: ID50 HT-29. The procedure: as §3, §4, §5, §6
The subject of data set [4] is P388 leukemia. Kind of data set: Increase in mean survival time of mice bearing P388 leukemia. To be noted: i.p.; for Increase in MST: vs vehicle. Format: in vivo. The procedure: The efficacy of the remaining compounds is clearly documented by the fact that each increased the mean survival time of tumor-bearing mice in a dose-dependentmanner. […] The percent increase in mean survival time (MST) which appears in Table IV was calculated by the following formula: [formula]

The test system of the next data set is COLO-320-DM. Kind of data set: MTT cell count (ID50), human colon cancer cell line COLO-320-DM. In kind it is cell-based. The settings on record: 144 h, read-out: ID50 COLO-320. The procedure: as §3, §4, §5, §6
The next data set deals with WI-38 fibroblast. Nature of the data set: MTT cell count (ID50), non-transformed human fibroblast cell line WI-38. In kind it is cell-based. Further details: unit not given here. To be noted: 6 days incubation. The procedure:
as §3, §4, §5, §6

Another data set deals with P388 wild-type cells. Nature of the data set: MTT cell count (ID50), P388 wild-type leukemia cells in vitro. The settings on record: Mus musculus, P388, 120 h, read-out: ID50 P388/Wild. In kind it is cell-based, murine. The procedure: as §3, §4, §7, §8

In the case of `CC[C@]12C=CCN3CC[C@@]4(c5cc([C@@]6(C(=O)OC)C[C@H]7CN(CCc8c6[nH]c6ccccc86)C[C@H]6CCCC[C@H]67)c(OC)cc5N(C=O)[C@H]4[C@@](O)(C(=O)OC)[C@@H]1OC(C)=O)[C@@H]32` [D, (4aS,8aR,9R,11S)-15-[1,2,4,4a,5,6,7,8,8a,9,10,11,12,17-tetradecahydro-11-(methoxycarbonyl)-indolo(2',3':6,7,)azonino(1,2,3-bc)isoquinolin-11-yl]N-demethyl-N-formylvindoline], in the data set with P388 leukemia [1] (Mus musculus, P388, ip, read-out: ED50 (extrapolated values)), the ED50 was 0.043 mg/kg. Besides, the “T.I. (therapeutic index)” value in the data set with P388 leukemia [1] is 1.1. In [2], this molecule gave an LD50 of 0.045 mg/kg. Moreover, the IC50 with OM-1 came out at 60 nM; in data set [3] it was 2000 nM; in the data set with HT-29, 40 nM; with COLO-320-DM, 400 nM; with P388 wild-type cells, 55 nM. Further, the Fold-resistance in data set [3] came out at 36. In addition, the “Mean Survival Time” value in the data set on P388 leukemia [4] (0.015 mg/kg (optimal dose), vehicle 10.7 days) turned out to be 26.5 days. For the same molecule, the “Increase in MST” value in the data set on P388 leukemia [4] (0.015 mg/kg (optimal dose)) is 148%. The “ID50 WI-38 fibroblast” value in the data set with WI-38 fibroblast is listed as 4 × 10^-7.
With `CC[C@]12C=CCN3CC[C@@]4(c5cc([C@@]6(C(=O)OC)C[C@H]7CN(CCc8c6[nH]c6ccccc86)C[C@@H]6CCCC[C@H]76)c(OC)cc5N(C)[C@H]4[C@@](O)(C(=O)OC)[C@@H]1OC(C)=O)[C@@H]32` [E, (4aR,8aS,9R,11S)-15-[1,2,4,4a,5,6,7,8,8a,9,10,11,12,17-tetradecahydro-11-(methoxycarbonyl)-indolo(2',3':6,7,)azonino(1,2,3-bc)isoquinolin-11-yl] vindoline], in the data set on P388 leukemia [1], the “T.I. (therapeutic index)” value is listed as below 1. Further, the LD50 in [2] is 0.18 mg/kg. For the same molecule, the IC50 in the data set with OM-1 came to 400 nM; in data set [3], 430 nM; in the data set with HT-29 it was 300 nM; with COLO-320-DM, 300 nM; in the data set on P388 wild-type cells, 68 nM. Besides, the Fold-resistance in [3] is 6. The “Mean Survival Time” value in the data set with P388 leukemia [4] (0.12 mg/kg (optimal dose), vehicle 9.6 days (A), 10.1 days (E)) is given as 21.5 days. The “Increase in MST” value with P388 leukemia [4] (0.12 mg/kg (optimal dose)) was found to be 113%. Moreover, in the data set on WI-38 fibroblast, the “ID50 WI-38 fibroblast” value is on record as 3 × 10^-7.

The record behind these values is US4935509A (priority 1989, dated 1990).
